# Values joined by “and” are separate entries in the source; they are usually repeats but may differ in a detail not shown here. Equal entries are not always repeated.
# Test system: vacuolized neurons in the PC/RS cortex (MK-801-induced neuronopathy)
# Assay: Inhibitory effect on MK-801-induced neurodegeneration (number of vacuolized neurons)
# Type: in vivo, mice (Std-ddY male)
# Experimental: The pharmacological test was carried out according to the method of D. F. Wozniak, et al. [Brain Research, Vol. 707, pp 165-178 (1996)].
# The cerebrum was cut transversely from the anterior termination at approximately 4 mm to the posterior termination, and then embedded in cold polymerized resin (Technovit7100, manufactured by Kulzer in Germany). The slices containing the PC/RS cortex were obtained at four Anterior-Posterior levels at intervals of 300 μm from the exposed section of the block, and at each level two slices (3 μm in thickness) were consecutively obtained. The histological change (on Hematoxylin and eosin stain specimen) and the number of vacuolized neurons (on Nissl stain specimen) were observed by a light microscope for each 4 slices, respectively.
# [1] = individual mouse, Compound A 1 mg/kg p.o. 30 min before MK-801 1 mg/kg s.c., 5 h after MK-801, PC/RS cortex
smiles,measurement,setting,value
"COc1cccc(-c2nccc3[nH]c(=O)c(-c4noc(C)n4)cc23)c1 [Compound A, 3-(5-Methyl-1,2,4-oxadiazol-3-yl)-5-(3-methoxyphenyl)-1,6-naphthyridin-2(1H)-one]","Vacuolization, Mean(/slice) Group","group mean of three mice, Compound A 1 mg/kg p.o. + MK-801 1 mg/kg s.c., 5 h",4.3 /slice
same,"Vacuolization, Slice No. 1",[1],0 (2×) and 20
same,"Vacuolization, Slice No. 2",[1],0 (2×) and 12
same,"Vacuolization, Slice No. 3",[1],0 and 10 and 2
same,"Vacuolization, Slice No. 4",[1],0 and 5 and 2
same,"Vacuolization, Mean(/slice) Individual","mean of 4 slices per mouse, Compound A 1 mg/kg p.o. + MK-801 1 mg/kg s.c., 5 h",0.0 /slice and 11.8 /slice and 1.0 /slice
same,retardation or inhibition of neurodegeneration in the PC/RS cortex induced by MK-801 (in words),"mice, Compound A 1 mg/kg p.o. before MK-801 1 mg/kg s.c.",potent retardation or inhibition of neurodegeneration
